We go through two compounds from ChEMBL document CHEMBL1148930, “DNA polymerase beta lyase inhibitors from Maytenus putterlickoides” (J Nat Prod, 2004).

Structures are written as SMILES.

Experiment [1] concerns A549. Nature of the experiment: Cytotoxicity against human A549 cells assessed as cell viability at 200 uM after 48 hrs by MTT assay relative to control. The class given is functional. The settings on record: A549, 48 h, read-out: Activity.
Experiment [2] deals with A549. In words: Cytotoxicity against human A549 cells assessed as cell viability at 62.5 uM after 48 hrs by MTT assay relative to control. Format: functional. The settings on record: A549, 48 h, read-out: Activity. (In general: Tetrazolium dyes change colour on reduction, which living cells bring about.)
Experiment [3] deals with A549. Nature of the experiment: Potentiation of methyl methanesulfonate-induced cytotoxicity against human A549 cells assessed as cell viability after 48 hrs by MTT assay relative to control. Format: functional.
The target in another experiment is DNA polymerase beta (Rattus norvegicus, UniProt P06766). In words: Inhibition of lyase activity of rat DNA polymerase beta after 30 mins by deoxyribose phosphate excision assay.

As a reminder, the IC50 is the concentration that gives 50% inhibition. Low values mean higher potency, high ones lower potency. With `Oc1cc(O)c2c(c1)O[C@H](c1ccc(O)c(O)c1)[C@H](O)C2` [(-)-EPICATECHIN], the viability at 200 µM with A549 [1] was 100%. The viability at 62.5 µM in the experiment with A549 [2] worked out at 100%. The Activity in the experiment on A549 [3] is recorded as 86.6%. The compound also registered an IC50 against DNA polymerase beta of 18.5 µM.

Consider `C=C(COC(=O)c1ccc(O)cc1)[C@@H]1CC[C@]2(C)CC[C@]3(C)[C@H](C[C@@H](O)[C@@H]4[C@@]5(C)CCC(=O)C(C)(C)[C@@H]5CC[C@]43C)[C@@H]12`, for which, in the experiment on A549 [1], the viability at 200 µM worked out at 100%. Further, in the experiment on A549 [2], the viability at 62.5 µM came to 100%. For the same compound, the Activity in the experiment on A549 [3] is 100%. For the same compound, 62.8 µM corresponded to half-maximal inhibition against DNA polymerase beta (IC50).
